Data on 8 molecules can be found in BindingDB's records for doi:10.3109/14756366.2010.482529 (Yonsei University, 2010).

In general, IC50 refers to the concentration needed to halve the response being measured. Higher therefore signals a need for much substance.

This experiment deals with T1, Polyphenol oxidase 1 (White button mushroom, UniProt Q00024).
T1 sequence (Q00024 whole entry): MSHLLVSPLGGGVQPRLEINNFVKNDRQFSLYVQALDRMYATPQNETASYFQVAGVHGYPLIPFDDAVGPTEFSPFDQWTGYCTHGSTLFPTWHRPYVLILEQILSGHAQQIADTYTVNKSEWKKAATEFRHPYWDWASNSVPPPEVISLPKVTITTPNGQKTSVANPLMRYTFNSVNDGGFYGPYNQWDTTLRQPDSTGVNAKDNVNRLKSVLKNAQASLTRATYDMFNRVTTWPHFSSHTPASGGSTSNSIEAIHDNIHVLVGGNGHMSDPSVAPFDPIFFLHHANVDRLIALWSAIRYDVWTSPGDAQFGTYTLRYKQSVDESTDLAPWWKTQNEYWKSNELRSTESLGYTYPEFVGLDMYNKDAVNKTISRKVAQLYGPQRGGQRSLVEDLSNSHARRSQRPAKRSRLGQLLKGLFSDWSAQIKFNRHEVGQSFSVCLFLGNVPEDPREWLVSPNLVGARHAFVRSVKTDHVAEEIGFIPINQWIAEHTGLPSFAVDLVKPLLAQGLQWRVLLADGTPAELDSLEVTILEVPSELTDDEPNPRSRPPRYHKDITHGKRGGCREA
Description: In Vitro Tyrosinase Inhibition Assay. The settings on record: pH 6.8; 25 °C. As for the experimental part: Tyrosinase inhibition assays were performed in a 96-well microplate format using the SpectraMax 340 microplate reader (Molecular Devices, CA) according to the method developed by Hearing [Khan et al., Pure Appl. […] First the samples were screened for the o-diphenolase inhibitory activity of mushroom tyrosinase (Lyophilised, ≥2000 units/mg, Sigma, […], USA) using L-3,4-dihydroxyphenylalanine (L-DOPA) (Sigma) as substrate. All the active samples from the preliminary screening were subjected to half maximal inhibitory concentration (IC50) studies. The samples were dissolved in methanol/DMSO to a final concentration of 0.5%. […] Then the L-DOPA (0.5 mM) was added to the reaction mixture and the reaction was monitored by measuring the change in absorbance at 475 nm (at 37°C) due to the formation of the DOPA chrome for 10 min.

Consider `N[C@@H](Cn1ccc(=O)c(O)c1)C(=O)O`, for which the IC50 was determined as 3.68 µM. The molecule `CC(C)=CCOC(=O)c1ccc(O)cc1` [3-Methyl-2-butenyl-4-hydroxybenzoate (2)] returned an IC50 of 14.8 µM. This IC50 lies about 4-fold higher than the previous one.

The molecule `CC(C)=CCOC(=O)c1ccccc1` [3-Methyl-2-butenylbenzoate (1)] gave an IC50 of 83.4 µM. On to `O=C(Oc1ccc([N+](=O)[O-])cc1)c1ccc([N+](=O)[O-])cc1C(F)(F)F` [4-Nitro-phenyl-(4-nitro-2-trifluoromethyl)-benzoate (6)], for which the IC50 amounted to 29.7 µM. In turn, `O=C(NCCBr)c1cc([N+](=O)[O-])cc([N+](=O)[O-])c1` [N-(2-Bromo-ethyl)-3,5-dinitro-benzamide (8)] had an IC50 of 3.08 µM. This IC50 is about 9.6-fold lower than that of the molecule before. For the molecule `O=C(NCCO)c1cc([N+](=O)[O-])cc([N+](=O)[O-])c1` [N-(2-Hydroxy-ethyl)-3,5-dinitro-benzamide (7)], inhibition was half-maximal at 1.09 µM (IC50). The same measure for `CCNC(=O)c1ccccc1` [N-Ethyl-benzamide (10)]: 11.8 µM.

`Cc1ccc(C(=O)N(C)O)cc1` [N-Hydroxy-4,N-dimethyl-benzamide (9)] returned an IC50 of 2.09 µM.
